Patent US11839679B2, “Gamma-diketones for treatment and prevention of aging skin and wrinkles” (BioSplice Therapeutics, Inc., priority 2014, dated 2023)

Test system: fine lines, wrinkles in the outer canthus of the eyes (crow's feet area)
Experiment: Panelist self-assessment questionnaire, Example 1
Assay type: in vivo, human
Design: key to Q2 appearance of my skin around either of my eyes, Score: 1: Better; 2: Little better; 3: Same; 4: Little worse; 5: Worse
Conditions: for Q3 how do you feel about the treated area surrounding your eyes and the appearance of wrinkles, % Responders Score 3: Score 3 = Neither satisfied or dissatisfied; for Q2 appearance of my skin around either of my eyes, % Responders Score 3: Score 3 = Same; for Q4 any discomfort, other than slight tingling, in the treated area during the study, % Responders Score 3: Score 3 = Yes, occasional discomfort lasting more than one hour; for Q1 My wrinkles in the eye area have improved, % Responders Score 4: Score 4 = Disagree; for Q3 how do you feel about the treated area surrounding your eyes and the appearance of wrinkles, % Responders Score 4: Score 4 = Dissatisfied; for Q2 appearance of my skin around either of my eyes, % Responders Score 4: Score 4 = Little worse; for Q4 any discomfort, other than slight tingling, in the treated area during the study, % Responders Score 4: Score 4 = Yes, every day lasting less than an hour; for Q1 My wrinkles in the eye area have improved, % Responders Score 5: Score 5 = Strongly disagree; for Q3 how do you feel about the treated area surrounding your eyes and the appearance of wrinkles, % Responders Score 5: Score 5 = Very Dissatisfied; for Q2 appearance of my skin around either of my eyes, % Responders Score 5: Score 5 = Worse; for Q4 any discomfort, other than slight tingling, in the treated area during the study, % Responders Score 5: Score 5 = Yes, everyday lasting more than an hour
Method: Three groups of women were recruited to evaluate and compare the efficacy of three anti-aging test products (targeting the periorbital eye area) intended to reduce the appearance of fine lines, wrinkles in the outer canthus of the eyes (crow's feet area) over a 12 week period. Wrinkle assessment was conducted instrumentally using a Visioscan image analysis system. Effectiveness of the test product was evaluated using panelist self-assessment via questionnaire responses comprised of 3-4 questions (Q1, Q2, Q3 & Q4). Each stage in the progression of treatments was photographically documented using a High Resolution Scientifically Matched Photography technique. Image analysis was utilized to quantify changes in fine lines and crow's feet condition observed in the Scientifically Matched Photographs.
Subject Selection: • Number: Six subjects (two per group) to complete the study. • Sex: Females • Race: Caucasian/Asian/Hispanic • Age Range: 40 through 60 years old
Test samples: • Topical 0.15% of Compound #222 in Oil (a 50/50 mixture of • Propylene Glycol Dicaprylate/Dicaprate and Caprylic/Capric Triglyceride) (Cohort 1) • Topical 0.15% of Compound #222 in PEG400 (Cohort 2) • Topical 0.05% of Compound #222 in PEG400 (Cohort 3)
All subjects were instructed to use the test material once a day, as part of their daily skin care routine. Immediately following baseline evaluations, the subjects were issued the product with the following instructions:
GROUP 1—Compound #222 Topical 0.15% in oil (Cohort 1): The subjects were instructed to hold the bottle at an angle such that the roller-ball was at bottom and apply the roller-ball to the periorbital area, including the crow's feet area, 2-3 times, starting from the area under the eye (and above the cheekbone) and moving up towards the outer tip of the eye-brow. After 2-3 rolls, they were able to see wetness on the treated area. This procedure was repeated for the other eye.
GROUPS 2 & 3 Compound #222 Topical 0.15% in PEG (Cohort 2) & Compound #222 Topical 0.05% in PEG (Cohort 3): The subjects were instructed to hold the dispenser upright with one hand and with the tip of the index finger on the pump (similar to holding a spray container), pour a small amount of the product into the palm of their other hand by pumping once or twice. The product was then applied on to the periorbital area, including the crow's feet area, of both eyes with their index finger.
[…] After acclimating to ambient conditions, High Resolution Scientifically Matched Photographs were be taken and biophysical measurements (Surface Evaluation of Living Skin via Visioscan) were repeated using the standard template to identify test sites on the face. In addition (during the acclimation period) all participants were be asked to fill out a self-assessment questionnaire.
The source data was Visioscan and PhotoGrammetrix Image Analysis readings along with subjective assessments, which were totaled and reported as average scores. Photographs were placed side by side as to compare the photographs of before and after application of the test product in the eye area. Wrinkle reduction analysis source data consisted of crow's feet area quantification in relative units (px), collected at baseline and, the week 2, 4, 8 and 12 evaluations. The data obtained via Visioscan and from PhotoGrammetrix Image Analysis was quoted as % differences from baseline at each of the previously described time points. A paired t-test analysis was conducted in order to compare the results of post test product application measurements to baseline measurements where applicable. Statistical significance was established if p≤(α=0.05) was calculated.

[1] = Day 7, Topical 0.05% in PEG (Cohort 3)
[2] = Day 7, Topical 0.15% in Oil (Cohort 1)
[3] = Day 7, Topical 0.15% in PEG (Cohort 2)
[4] = Day 14, Topical 0.05% in PEG (Cohort 3)
[5] = Day 14, Topical 0.15% in Oil (Cohort 1)
[6] = Day 14, Topical 0.15% in PEG (Cohort 2)

- Q4 any discomfort, other than slight tingling, in the treated area during the study, % Responders Score 3 [1]: 0%
- Q4 any discomfort, other than slight tingling, in the treated area during the study, % Responders Score 3 [2]: 0%
- Q4 any discomfort, other than slight tingling, in the treated area during the study, % Responders Score 3 [3]: 0%
- Q4 any discomfort, other than slight tingling, in the treated area during the study, % Responders Score 3 [4]: 0%
- Q4 any discomfort, other than slight tingling, in the treated area during the study, % Responders Score 3 [5]: 0%
- Q4 any discomfort, other than slight tingling, in the treated area during the study, % Responders Score 3 [6]: 0%
- Q4 any discomfort, other than slight tingling, in the treated area during the study, % Responders Score 4 [1]: 0%
- Q4 any discomfort, other than slight tingling, in the treated area during the study, % Responders Score 4 [2]: 0%
- Q4 any discomfort, other than slight tingling, in the treated area during the study, % Responders Score 4 [3]: 0%
- Q4 any discomfort, other than slight tingling, in the treated area during the study, % Responders Score 4 [4]: 0%
- Q4 any discomfort, other than slight tingling, in the treated area during the study, % Responders Score 4 [5]: 0%
- Q4 any discomfort, other than slight tingling, in the treated area during the study, % Responders Score 4 [6]: 50%
- Q4 any discomfort, other than slight tingling, in the treated area during the study, % Responders Score 5 [1]: 0%
- Q4 any discomfort, other than slight tingling, in the treated area during the study, % Responders Score 5 [2]: 0%
- Q4 any discomfort, other than slight tingling, in the treated area during the study, % Responders Score 5 [3]: 0%
- Q4 any discomfort, other than slight tingling, in the treated area during the study, % Responders Score 5 [4]: 0%
- Q4 any discomfort, other than slight tingling, in the treated area during the study, % Responders Score 5 [5]: 0%
- Q4 any discomfort, other than slight tingling, in the treated area during the study, % Responders Score 5 [6]: 0%
SMILES: O=C(CCC(=O)c1ccc2c(c1)OCO2)c1ccccc1 [#222]
- Q3 how do you feel about the treated area surrounding your eyes and the appearance of wrinkles, % Responders Score 3 [1]: 50%
- Q3 how do you feel about the treated area surrounding your eyes and the appearance of wrinkles, % Responders Score 3 [2]: 50%
- Q3 how do you feel about the treated area surrounding your eyes and the appearance of wrinkles, % Responders Score 3 [3]: 50%
- Q3 how do you feel about the treated area surrounding your eyes and the appearance of wrinkles, % Responders Score 3 [4]: 0%
- Q3 how do you feel about the treated area surrounding your eyes and the appearance of wrinkles, % Responders Score 3 [5]: 50%
- Q3 how do you feel about the treated area surrounding your eyes and the appearance of wrinkles, % Responders Score 3 [6]: 0%
- Q2 appearance of my skin around either of my eyes, % Responders Score 3 [1]: 0%
- Q2 appearance of my skin around either of my eyes, % Responders Score 3 [2]: 50%
- Q2 appearance of my skin around either of my eyes, % Responders Score 3 [3]: 50%
- Q2 appearance of my skin around either of my eyes, % Responders Score 3 [4]: 0%
- Q2 appearance of my skin around either of my eyes, % Responders Score 3 [5]: 50%
- Q2 appearance of my skin around either of my eyes, % Responders Score 3 [6]: 50%
- Q1 My wrinkles in the eye area have improved, % Responders Score 4 [1]: 0%
- Q1 My wrinkles in the eye area have improved, % Responders Score 4 [2]: 0%
- Q1 My wrinkles in the eye area have improved, % Responders Score 4 [3]: 50%
- Q1 My wrinkles in the eye area have improved, % Responders Score 4 [4]: 0%
- Q1 My wrinkles in the eye area have improved, % Responders Score 4 [5]: 50%
- Q1 My wrinkles in the eye area have improved, % Responders Score 4 [6]: 50%
- Q3 how do you feel about the treated area surrounding your eyes and the appearance of wrinkles, % Responders Score 4 [1]: 0%
- Q3 how do you feel about the treated area surrounding your eyes and the appearance of wrinkles, % Responders Score 4 [2]: 0%
- Q3 how do you feel about the treated area surrounding your eyes and the appearance of wrinkles, % Responders Score 4 [3]: 0%
- Q3 how do you feel about the treated area surrounding your eyes and the appearance of wrinkles, % Responders Score 4 [4]: 0%
- Q3 how do you feel about the treated area surrounding your eyes and the appearance of wrinkles, % Responders Score 4 [5]: 0%
- Q3 how do you feel about the treated area surrounding your eyes and the appearance of wrinkles, % Responders Score 4 [6]: 50%
- Q2 appearance of my skin around either of my eyes, % Responders Score 4 [1]: 0%
- Q2 appearance of my skin around either of my eyes, % Responders Score 4 [2]: 0%
- Q2 appearance of my skin around either of my eyes, % Responders Score 4 [3]: 0%
- Q2 appearance of my skin around either of my eyes, % Responders Score 4 [4]: 0%
- Q2 appearance of my skin around either of my eyes, % Responders Score 4 [5]: 0%
- Q2 appearance of my skin around either of my eyes, % Responders Score 4 [6]: 0%
- Q1 My wrinkles in the eye area have improved, % Responders Score 5 [1]: 0%
- Q1 My wrinkles in the eye area have improved, % Responders Score 5 [2]: 50%
- Q1 My wrinkles in the eye area have improved, % Responders Score 5 [3]: 0%
- Q1 My wrinkles in the eye area have improved, % Responders Score 5 [4]: 0%
- Q1 My wrinkles in the eye area have improved, % Responders Score 5 [5]: 0%
- Q1 My wrinkles in the eye area have improved, % Responders Score 5 [6]: 0%
- Q3 how do you feel about the treated area surrounding your eyes and the appearance of wrinkles, % Responders Score 5 [1]: 0%
- Q3 how do you feel about the treated area surrounding your eyes and the appearance of wrinkles, % Responders Score 5 [2]: 0%
- Q3 how do you feel about the treated area surrounding your eyes and the appearance of wrinkles, % Responders Score 5 [3]: 0%
- Q3 how do you feel about the treated area surrounding your eyes and the appearance of wrinkles, % Responders Score 5 [4]: 0%
- Q3 how do you feel about the treated area surrounding your eyes and the appearance of wrinkles, % Responders Score 5 [5]: 0%
- Q3 how do you feel about the treated area surrounding your eyes and the appearance of wrinkles, % Responders Score 5 [6]: 0%
- Q2 appearance of my skin around either of my eyes, % Responders Score 5 [1]: 0%
- Q2 appearance of my skin around either of my eyes, % Responders Score 5 [2]: 0%
- Q2 appearance of my skin around either of my eyes, % Responders Score 5 [3]: 0%
- Q2 appearance of my skin around either of my eyes, % Responders Score 5 [4]: 0%
- Q2 appearance of my skin around either of my eyes, % Responders Score 5 [5]: 0%
- Q2 appearance of my skin around either of my eyes, % Responders Score 5 [6]: 0%
- Q2 appearance of my skin around either of my eyes, Score (Subject #1, Day 7, Topical 0.15% in Oil (Cohort 1)): 3
- Q2 appearance of my skin around either of my eyes, Score (Subject #1, Day 14, Topical 0.15% in Oil (Cohort 1)): 3
- Q2 appearance of my skin around either of my eyes, Score (Subject #2, Day 7, Topical 0.15% in Oil (Cohort 1)): 2
- Q2 appearance of my skin around either of my eyes, Score (Subject #2, Day 14, Topical 0.15% in Oil (Cohort 1)): 2
- Q2 appearance of my skin around either of my eyes, Score (Subject #3, Day 7, Topical 0.15% in PEG (Cohort 2)): 2
- Q2 appearance of my skin around either of my eyes, Score (Subject #3, Day 14, Topical 0.15% in PEG (Cohort 2)): 2
- Q2 appearance of my skin around either of my eyes, Score (Subject #4, Day 7, Topical 0.15% in PEG (Cohort 2)): 3
- Q2 appearance of my skin around either of my eyes, Score (Subject #4, Day 14, Topical 0.15% in PEG (Cohort 2)): 3
- Q2 appearance of my skin around either of my eyes, Score (Subject #5, Day 7, Topical 0.05% in PEG (Cohort 3)): 1
- Q2 appearance of my skin around either of my eyes, Score (Subject #5, Day 14, Topical 0.05% in PEG (Cohort 3)): 1
- Q2 appearance of my skin around either of my eyes, Score (Subject #6, Day 7, Topical 0.05% in PEG (Cohort 3)): 2
- Q2 appearance of my skin around either of my eyes, Score (Subject #6, Day 14, Topical 0.05% in PEG (Cohort 3)): 2
